The text below walks through data of patent publication US8741934B2, “Inhibitors of ion channels” (Pfizer Limited, priority 2007, dated 2014).

This test deals with T1, hSCN3A sodium channels (Homo sapiens, UniProt Q9NY46).
T1 construct: expressed in transfected cells
T1 sequence (Q9NY46 whole entry): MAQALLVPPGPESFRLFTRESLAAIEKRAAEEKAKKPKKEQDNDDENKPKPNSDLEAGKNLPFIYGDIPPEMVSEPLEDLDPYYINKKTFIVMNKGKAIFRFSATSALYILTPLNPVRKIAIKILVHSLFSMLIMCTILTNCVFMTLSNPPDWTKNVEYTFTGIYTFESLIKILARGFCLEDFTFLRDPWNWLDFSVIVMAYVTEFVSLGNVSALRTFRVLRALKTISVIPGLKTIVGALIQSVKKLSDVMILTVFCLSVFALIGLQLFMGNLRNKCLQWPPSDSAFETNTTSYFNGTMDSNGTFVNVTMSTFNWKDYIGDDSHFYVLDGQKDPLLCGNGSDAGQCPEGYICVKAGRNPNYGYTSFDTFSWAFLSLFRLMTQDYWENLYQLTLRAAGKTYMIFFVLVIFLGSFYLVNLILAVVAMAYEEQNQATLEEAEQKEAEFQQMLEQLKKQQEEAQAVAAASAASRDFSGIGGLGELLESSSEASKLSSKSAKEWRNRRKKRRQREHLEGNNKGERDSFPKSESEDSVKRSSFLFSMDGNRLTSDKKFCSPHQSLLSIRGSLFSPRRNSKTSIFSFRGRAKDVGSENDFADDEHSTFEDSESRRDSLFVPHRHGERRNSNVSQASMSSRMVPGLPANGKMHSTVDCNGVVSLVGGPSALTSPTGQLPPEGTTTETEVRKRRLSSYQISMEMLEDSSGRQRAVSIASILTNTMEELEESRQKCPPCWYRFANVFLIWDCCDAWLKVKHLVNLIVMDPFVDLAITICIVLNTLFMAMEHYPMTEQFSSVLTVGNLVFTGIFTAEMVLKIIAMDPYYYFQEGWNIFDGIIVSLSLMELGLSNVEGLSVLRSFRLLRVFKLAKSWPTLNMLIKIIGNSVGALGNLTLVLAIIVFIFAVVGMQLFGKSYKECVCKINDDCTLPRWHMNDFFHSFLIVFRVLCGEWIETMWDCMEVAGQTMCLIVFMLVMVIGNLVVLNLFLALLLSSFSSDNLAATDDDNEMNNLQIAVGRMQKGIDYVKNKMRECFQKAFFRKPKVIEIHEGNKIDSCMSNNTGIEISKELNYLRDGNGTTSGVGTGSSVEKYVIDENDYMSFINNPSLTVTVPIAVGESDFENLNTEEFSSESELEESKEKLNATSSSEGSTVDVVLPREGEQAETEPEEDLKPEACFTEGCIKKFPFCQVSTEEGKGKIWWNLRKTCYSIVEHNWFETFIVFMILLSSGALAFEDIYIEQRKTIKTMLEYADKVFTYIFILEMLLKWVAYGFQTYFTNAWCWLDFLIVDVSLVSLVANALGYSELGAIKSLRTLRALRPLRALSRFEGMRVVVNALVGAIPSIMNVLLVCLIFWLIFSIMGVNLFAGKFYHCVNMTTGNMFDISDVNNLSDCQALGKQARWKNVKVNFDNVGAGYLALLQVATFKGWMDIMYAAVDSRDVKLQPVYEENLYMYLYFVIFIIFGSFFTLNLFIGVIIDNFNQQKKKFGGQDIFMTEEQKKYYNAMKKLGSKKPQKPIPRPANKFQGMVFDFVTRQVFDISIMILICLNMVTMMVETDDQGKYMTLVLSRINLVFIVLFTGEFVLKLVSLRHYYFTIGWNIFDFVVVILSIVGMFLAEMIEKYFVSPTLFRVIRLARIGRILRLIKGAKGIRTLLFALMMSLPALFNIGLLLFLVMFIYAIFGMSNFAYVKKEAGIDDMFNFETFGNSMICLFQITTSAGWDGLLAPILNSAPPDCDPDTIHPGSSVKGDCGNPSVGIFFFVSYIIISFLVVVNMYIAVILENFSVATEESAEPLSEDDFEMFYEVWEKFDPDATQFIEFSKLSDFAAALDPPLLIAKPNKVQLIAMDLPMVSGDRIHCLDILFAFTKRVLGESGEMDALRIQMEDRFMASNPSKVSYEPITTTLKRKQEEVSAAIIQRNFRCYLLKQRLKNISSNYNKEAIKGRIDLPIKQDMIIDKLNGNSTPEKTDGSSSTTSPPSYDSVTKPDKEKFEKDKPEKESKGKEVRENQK
The test can be described thus: hSCN3A electrophysiology, whole-cell patch-clamp or PatchXpress 7000, estimated IC-50 (Table B). The test is classed as cell-based. The conditions noted are these: estimated IC-50; hSCN3A cells, whole-cell patch-clamp or PatchXpress 7000; read-out: SCN3A EIC-50. Summed up:
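A 20 msec test pulse to 0 mV followed an 8 sec conditioning prepulse at each cell's measured V1/2. Room-temperature (22-24° C) recordings on HEK cells stably expressing the channel, conventional or PatchXpress.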
On to `N#Cc1cc(S(=O)(=O)Nc2ncc(Cl)s2)ccc1C(=O)NCc1ccc(C(F)(F)F)c(F)c1` [Example 348, 4-{[(5-Chloro-1,3-thiazol-2-yl)amino]sulfonyl}-2-cyano-N-[3-fluoro-4-(trifluoromethyl)benzyl]benzamide], for which the IC50 is 1580 nM.

Turning to `O=C(NCc1ccc(Cl)c(F)c1)c1ccc(S(=O)(=O)Nc2ncc(Cl)s2)cc1` [Example 37, N-(4-Chloro-3-fluorobenzyl)-4-{[(5-chloro-1,3-thiazol-2-yl)amino]sulfonyl}benzamide], the IC50 was 70 nM.

In the case of `O=C(NCCc1ccc(Cl)cc1)c1ccc(S(=O)(=O)Nc2nccs2)cc1` [Example 72, N-[2-(4-chlorophenyl)ethyl]-4-[(1,3-thiazol-2-ylamino)sulfonyl]benzamide], the IC50 was 660 nM.

Regarding `O=C(NCc1cccc(OC(F)(F)F)c1)c1ccc(S(=O)(=O)Nc2nccs2)cc1` [Example 73, 4-[(1,3-Thiazol-2-ylamino)sulfonyl]-N-[3-(trifluoromethoxy)benzyl]benzamide], the IC50 was 180 nM.

For `O=C(NCc1ccc(-n2cccn2)cc1)c1ccc(S(=O)(=O)Nc2nccs2)cc1` [Example 60, N-[4-(1H-pyrazol-1-yl)benzyl]-4-[(1,3-thiazol-2-ylamino)sulfonyl]benzamide], the IC50 is 1500 nM.

On to `COc1cc(OC(F)(F)F)ccc1CNC(=O)c1ccc(S(=O)(=O)Nc2nccs2)cc1` [Example 404, N-[2-methoxy-4-(trifluoromethoxy)benzyl]-4-[(1,3-thiazol-2-ylamino)sulfonyl] benzamide], for which the IC50 is 140 nM.

`O=C(NCc1ccc(F)c(F)c1)c1ccc(S(=O)(=O)Nc2ncc(Cl)s2)cc1` [Example 33, 4-{[(5-Chloro-1,3-thiazol-2-yl)amino]sulfonyl}-N-(3,4-difluorobenzyl)benzamide]: the IC50 is 150 nM.

As to `O=C(NCc1ccc(OC(F)(F)F)cc1)c1ccc(S(=O)(=O)Nc2ncc(Cl)s2)c(F)c1` [Example 314, 4-{[(5-Chloro-1,3-thiazol-2-yl)amino]sulfonyl}-3-fluoro-N-[4-(trifluoromethoxy)benzyl]benzamide], the IC50 was 70 nM.

Take `CC(C)(NC(=O)c1ccc(S(=O)(=O)Nc2nccs2)cc1)c1ccc(C(F)(F)F)cc1` [Example 123, N-{1-methyl-1-[4-(trifluoromethyl)phenyl]ethyl}-4-[(1,3-thiazol-2-ylamino)sulfonyl]benzamide]: the IC50 is 1440 nM.

On to `O=C(NCc1ccc(F)c(Cl)c1)c1ccc(S(=O)(=O)Nc2ncc(Cl)s2)cc1` [Example 36, N-(3-Chloro-4-fluorobenzyl)-4-{[(5-chloro-1,3-thiazol-2-yl)amino]sulfonyl}benzamide], for which the IC50 was 70 nM.

On to `O=C(NCc1cccc(C(F)(F)F)c1)c1ccc(S(=O)(=O)Nc2nccs2)cc1F` [Example 327, 2-Fluoro-4-[(1,3-thiazol-2-ylamino)sulfonyl]-N-[3-(trifluoromethyl)benzyl]benzamide], for which the IC50 is 260 nM.

Take `O=C(NCc1ccc(OC(F)(F)F)cc1)c1ccc(S(=O)(=O)Nc2nccs2)cc1F` [Example 330, 2-Fluoro-4-[(1,3-thiazol-2-ylamino)sulfonyl]-N-[4-(trifluoromethoxy)benzyl]benzamide]: the IC50 was 130 nM.

Consider `O=C(NCc1ccc(Cl)cc1F)c1ccc(S(=O)(=O)Nc2nccs2)cc1` [Example 93, N-(4-chloro-2-fluorobenzyl)-4-[(1,3-thiazol-2-ylamino)sulfonyl]benzamide], for which the IC50 was 460 nM.

As for `O=C(NCc1ccc(F)c(C(F)(F)F)c1)c1ccc(S(=O)(=O)Nc2ncc(Cl)s2)c(Cl)c1` [Example 370, 3-Chloro-4-{[(5-chloro-1,3-thiazol-2-yl)amino]sulfonyl}-N-[4-fluoro-3-(trifluoromethyl)benzyl]benzamide], the IC50 is 1220 nM.

For the compound `N#Cc1cccc(CNC(=O)c2ccc(S(=O)(=O)Nc3nccs3)cc2)c1` [Example 180, N-(3-cyanobenzyl)-4-[(1,3-thiazol-2-ylamino)sulfonyl]benzamide], the IC50 was more than 1000 nM.

In the case of `Cn1nc(Cc2ccc(Cl)cc2)cc1NC(=O)c1ccc(S(=O)(=O)Nc2ncc(Cl)s2)c(F)c1` [Example 379, N-[3-(4-chlorobenzyl)-1-methyl-1H-pyrazol-5-yl]-4-{[(5-chloro-1,3-thiazol-2-yl)-amino]sulfonyl}-3-fluorobenzamide], the IC50 was 20 nM.

Consider `O=C(NCCc1ccccc1)c1ccc(S(=O)(=O)Nc2nccs2)cc1` [Example 163, N-(2-phenylethyl)-4-[(1,3-thiazol-2-ylamino)sulfonyl]benzamide], for which the IC50 was 5050 nM.

For `O=C(NCc1ccc(C(F)(F)F)c(F)c1)c1ccc(S(=O)(=O)Nc2ncns2)cc1Cl` [Example 375, 2-Chloro-N-[3-fluoro-4-(trifluoromethyl)benzyl]-4-[(1,2,4-thiadiazol-5-ylamino)sulfonyl]benzamide], the IC50 is 450 nM.

Regarding `Cc1noc(NS(=O)(=O)c2ccc(C(=O)NCc3ccc(C(F)(F)F)cc3)cc2)c1C` [Example 12, 4-{[(3,4-Dimethylisoxazol-5-yl)amino]sulfonyl}-N-[4-(trifluoromethyl)benzyl]benzamide], the IC50 is 29600 nM.

Turning to `O=C(c1ccc(S(=O)(=O)Nc2nccs2)cc1)N1CC[C@@H](Oc2ccccc2Cl)C1` [Example 247, 4-{[(3R)-3-(2-chlorophenoxy)pyrrolidin-1-yl]carbonyl}-N-1,3-thiazol-2-yl-benzenesulfonamide], the IC50 is more than 1000 nM.

For the compound `CN(Cc1ccc(F)cc1)C(=O)c1ccc(S(=O)(=O)Nc2ncc(Cl)s2)cc1` [Example 43, 4-{[(5-Chloro-1,3-thiazol-2-yl)amino]sulfonyl}-N-(4-fluorobenzyl)-N-methylbenzamide], the IC50 was 4830 nM.

For the compound `O=C(NCc1ccc(OC(F)(F)F)c(F)c1)c1ccc(S(=O)(=O)Nc2nccs2)cc1F` [Example 328, 2-Fluoro-N-[3-fluoro-4-(trifluoromethoxy)benzyl]-4-[(1,3-thiazol-2-ylamino)sulfonyl] benzamide], the IC50 is 120 nM.

In the case of `O=C(c1ccc(S(=O)(=O)Nc2nccs2)cc1)N1CCOC(COc2ccc(F)cc2Cl)C1` (stereo not drawn) [Example 266, 4-({2-[(2-Chloro-4-fluorophenoxy)methyl]morpholin-4-yl}carbonyl)-N-1,3-thiazol-2-ylbenzenesulfonamide], the IC50 is 1670 nM.

`O=C(NCc1cccc(C(F)(F)F)c1)c1ccc(S(=O)(=O)Nc2ncc(Cl)s2)cc1F` [Example 354, 4-{[(5-Chloro-1,3-thiazol-2-yl)amino]sulfonyl}-2-fluoro-N-[3-(trifluoromethyl)benzyl]benzamide]: the IC50 is 210 nM.

With `O=C(Nc1nccc2cccnc12)c1ccc(S(=O)(=O)Nc2nccs2)cc1` [Example 116, N-1,7-naphthyridin-8-yl-4-[(1,3-thiazol-2-ylamino)sulfonyl]benzamide], the IC50 is more than 100 nM.

Take `COc1ccc(CNC(=O)c2ccc(S(=O)(=O)Nc3nccs3)cc2)cc1` [Example 176, N-(4-methoxybenzyl)-4-[(1,3-thiazol-2-ylamino)sulfonyl]benzamide]: the IC50 is 4500 nM.

For the compound `O=C(NCc1ccc(Cl)cc1C(F)(F)F)c1ccc(S(=O)(=O)Nc2nccs2)cc1` [Example 406, N-[4-chloro-2-(trifluoromethyl)benzyl]-4-[(1,3-thiazol-2-ylamino)sulfonyl] benzamide], the IC50 was 260 nM.

As to `O=C(c1ccc(S(=O)(=O)Nc2nccs2)cc1)N1CCC(c2ccccc2)C1` (stereo not drawn) [Example 191, 4-[(3-Phenylpyrrolidin-1-yl)carbonyl]-N-1,3-thiazol-2-yl-benzenesulfonamide], the IC50 was 2250 nM.

As to `COc1ccccc1CC1CCCN(C(=O)c2ccc(S(=O)(=O)Nc3nccs3)cc2)C1` (stereo not drawn) [Example 196, 4-{[3-(2-Methoxybenzyl)piperidin-1-yl]carbonyl}-N-1,3-thiazol-2-yl-benzenesulfonamide], the IC50 is more than 1000 nM.

In the case of `CC(NC(=O)c1ccc(S(=O)(=O)Nc2ncns2)cc1)c1ccc(C(F)(F)F)cc1` (stereo not drawn) [Example 322, 4-[(1,2,4-Thiadiazol-5-ylamino)sulfonyl]-N-{1-[4-(trifluoromethyl)phenyl]ethyl}benzamide], the IC50 is 340 nM.

On to `O=C(NCc1ccc(Cl)c(F)c1)c1ccc(S(=O)(=O)Nc2nccs2)c(Cl)c1` [Example 292, 3-Chloro-N-(4-chloro-3-fluorobenzyl)-4-[(1,3-thiazol-2-yl-amino)sulfonyl]benzamide], for which the IC50 is 900 nM.

Take `C[C@H]1CN(C(=O)c2ccc(S(=O)(=O)Nc3nccs3)cc2)C[C@@H]1COc1ccccc1` [Example 49, 4-{[(3R,4R)-3-methyl-4-(phenoxymethyl)pyrrolidin-1-yl]carbonyl}-N-1,3-thiazol-2-ylbenzenesulfonamide]: the IC50 was 1150 nM.

For the compound `O=C(NCC1(c2ccc(Cl)cc2)CC1)c1ccc(S(=O)(=O)Nc2ncns2)c(F)c1` [Example 382, N-{[1-(4-chlorophenyl)cyclopropyl]methyl}-3-fluoro-4-[(1,2,4-thiadiazol-5-ylamino)sulfonyl]benzamide], the IC50 is 140 nM.

Turning to `O=C(c1ccc(S(=O)(=O)Nc2nccs2)cc1)N1CC[C@H](Oc2ccccc2Cl)C1` [Example 200, 4-{[(3S)-3-(2-chlorophenoxy)pyrrolidin-1-yl]carbonyl}-N-1,3-thiazol-2-yl-benzenesulfonamide], the IC50 is 3600 nM.

Regarding `O=C(NCc1ccc(OC(F)(F)F)c(F)c1)c1ccc(S(=O)(=O)Nc2ncc(Cl)s2)cc1Cl` [Example 337, 2-Chloro-4-{[(5-chloro-1,3-thiazol-2-yl)amino]sulfonyl}-N-[3-fluoro-4-(trifluoromethoxy)benzyl]benzamide], the IC50 was 390 nM.

Turning to `O=C(NCc1ccc(C(F)(F)F)cc1)c1ccc(S(=O)(=O)Nc2cscn2)cc1` [Example 13, 4-[(1,3-Thiazol-4-ylamino)sulfonyl]-N-[4-(trifluoromethyl)benyzyl]benzamide], the IC50 was 680 nM.
